Data on 26 compounds can be found in ChEMBL document CHEMBL4219169, “Sulfoximines as potent RORγ inverse agonists” (Bioorg Med Chem Lett, 2018).

Data set [1] is described as follows: Lipophilicity, log D of the compound at pH 6.5 by HPLC analysis. In kind it is physicochemical. As to conditions: buffer.
Data set [2] in a line: Fraction unbound in human plasma at 5 uM incubated for 4 hrs at 37 degC by LC-MS/MS method. Type of data set: ADME, cell-free.
The test system of data set [3] is Salmonella typhimurium. As to the kind of experiment: Genotoxicity in Salmonella typhimurium TA100 in presence of aroclor-1254-induced rat S9 fraction by Ames test. In kind it is toxicity, organism-based. To be noted: salmonella enterica subsp. enterica serovar typhimurium. Background: The Ames test uses bacterial strains that need an amino acid and regain growth without it when mutated back.

The subject of data set [4] is TK6. As to the kind of experiment: Genotoxicity in human-derived p53-competent TK6 cells expressing GADD45a-dependent green fluorescent protein assessed as decrease in cell viability after 48 hrs in presence of Sprague-Dawley rat S9 fraction by FACS analysis. Type of data set: toxicity, cell-based. To be noted: s9, 48 h. (Flow cytometry measures light scatter and fluorescence of single cells or particles in a stream.)

A short description of data set [5]: Phototoxicity against human neonatal keratinocytes assessed as cell viability preincubated for 30 mins before 5 J/cm2 UV light irradiation for 15 mins followed by treatment medium replacement with fresh culture medium after 24 hrs by neutral red dye-based assay. To be noted: 0.25 h.
The subject of data set [6] is TK6. As to the kind of experiment: Genotoxicity in human TK6 cells incubated for 3 hrs in absence of aroclor-1254-induced rat S9 fraction followed by 27 hrs recovery period by Giemsa staining dependent optical microscopy based micronucleus test. Type of data set: toxicity, cell-based. As to conditions: tk6, 3 h.
Data set [7] concerns the target T1, Nuclear receptor ROR-alpha (Homo sapiens, UniProt P35398).
T1 sequence (P35398 whole entry): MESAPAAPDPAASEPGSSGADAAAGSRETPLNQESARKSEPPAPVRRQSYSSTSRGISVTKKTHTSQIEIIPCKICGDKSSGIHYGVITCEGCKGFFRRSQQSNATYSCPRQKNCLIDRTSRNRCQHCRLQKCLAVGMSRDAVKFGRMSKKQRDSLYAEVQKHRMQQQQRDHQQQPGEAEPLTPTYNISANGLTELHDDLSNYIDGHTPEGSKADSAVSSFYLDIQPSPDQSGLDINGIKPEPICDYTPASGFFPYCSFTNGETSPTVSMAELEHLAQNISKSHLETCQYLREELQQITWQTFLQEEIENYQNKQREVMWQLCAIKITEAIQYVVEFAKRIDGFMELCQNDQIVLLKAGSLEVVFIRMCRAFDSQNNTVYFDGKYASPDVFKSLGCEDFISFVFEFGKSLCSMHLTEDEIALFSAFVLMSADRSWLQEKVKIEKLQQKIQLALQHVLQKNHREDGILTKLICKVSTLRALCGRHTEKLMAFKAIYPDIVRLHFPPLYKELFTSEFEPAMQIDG
Description: Inverse agonist activity at RORalpha (unknown origin) expressed in human HeLa-derived HG5LN cells transfected with the GAL4 DNA-binding domain fused to the RORalpha ligand-binding domain assessed as inhibition of transcriptional activity after 18 hrs by luminescence-based luciferase reporter gene assay. Type of data set: cell-based. (A reporter such as luciferase makes a cellular process visible.)

Data set [8] relates to Salmonella typhimurium. Description: Genotoxicity in Salmonella typhimurium TA98 in presence of aroclor-1254-induced rat S9 fraction by Ames test. To be noted: salmonella enterica subsp. enterica serovar typhimurium. Type of data set: toxicity, organism-based.
For data set [9], the system named is TK6. Description: Genotoxicity in human-derived p53-competent TK6 cells expressing GADD45a-dependent green fluorescent protein assessed as decrease in cell viability after 48 hrs in absence of Sprague-Dawley rat S9 fraction by FACS analysis. Type of data set: toxicity, cell-based. To be noted: tk6, 48 h.
Data set [10] deals with Salmonella typhimurium. As to the kind of experiment: Genotoxicity in Salmonella typhimurium TA98 in absence of aroclor-1254-induced rat S9 fraction by Ames test. To be noted: salmonella enterica subsp. enterica serovar typhimurium. Type of data set: toxicity, organism-based.
A short description of data set [11]: Intrinsic clearance in human hepatocytes assessed per million cells at 1 uM incubated for 5 to 90 mins by LC-MS/MS method. Type of data set: ADME, cell-based, Hepatocyte. As to conditions: read-out: CLH.
The test system of data set [12] is TK6. As to the kind of experiment: Genotoxicity in human TK6 cells incubated for 27 hrs in absence of aroclor-1254-induced rat S9 fraction by Giemsa staining dependent optical microscopy based micronucleus test. Type of data set: toxicity, cell-based. To be noted: tk6, 27 h.
The subject of data set [13] is Salmonella typhimurium. Description: Genotoxicity in Salmonella typhimurium TA100 in absence of aroclor-1254-induced rat S9 fraction by Ames test. In kind it is toxicity, organism-based. As to conditions: salmonella enterica subsp. enterica serovar typhimurium.
Data set [14] concerns TK6. Description: Genotoxicity in human TK6 cells incubated for 3 hrs in presence of aroclor-1254-induced rat S9 fraction followed by 27 hrs recovery period by Giemsa staining dependent optical microscopy based micronucleus test. Type of data set: toxicity, cell-based. To be noted: s9, 3 h.
The subject of data set [15] is Mus musculus. Description: In vivo inverse agonist activity at RORgamma in wild type BALB/c ByJ Rj mouse model of imiquimod-induced skin inflammation model assessed as attenuation of imiquimod-induced epidermal hyperplasia at 0.01% administered topically daily for 7 days dosed 2 hrs before imiquimod administration measured on day 8 by hematoxylin and eosin staining-based histological analysis. Type of data set: functional.

One may read the logD as the decadic logarithm of the distribution of all forms, ionised or not, between an organic phase and buffer at a given pH. In general, fraction unbound refers to free concentration divided by total concentration. Broadly, the IC50 is the concentration needed to halve the response being measured.

Take `CCc1ccc(N(CC(C)C)S(=O)(=O)c2ccc(NCC3(CC)CCOCC3)c(S(C)(=N)=O)c2)cc1` (stereo not drawn): the logD in data set [1] is 6.1.

In data set [1], `CCc1ccc(N(CC(C)C)S(=O)(=O)c2ccc(N[C@H](C)C3CCOCC3)c(S(C)(=N)=O)c2)cc1` (stereo partly drawn) yielded a logD of 5.6. The same measure, in the same setting: for `CCc1ccc(N(CC(C)C)S(=O)(=O)c2ccc(NCC3(O)CCOCC3)c(S(C)(=N)=O)c2)cc1` (stereo not drawn) the value was 4.1; for `CCc1ccc(N(CC(C)C)S(=O)(=O)c2ccc(NCC3CCOCC3)c(S(C)(=N)=O)c2)cc1` (stereo not drawn), 5.3; for `CCc1ccc(N(CC(C)C)S(=O)(=O)c2ccc(OCC3CCOCC3)c(S(C)(=O)=NC)c2)cc1` (stereo not drawn), 5.2. Consider `CCc1ccc(N(CC(C)C)S(=O)(=O)c2ccc(N(C)CC3CCOCC3)c(S(C)(=N)=O)c2)cc1` (stereo not drawn), for which, in data set [1], the logD is 5.2. Turning to `CCc1ccc(N(CC(C)C)S(=O)(=O)c2ccc(OCC3CCOCC3)c([S@](C)(=N)=O)c2)cc1`, the fraction unbound at 4 h, 5 µM in data set [2] amounted to 0.049. In addition, the Activity result in [3], in data set [4], in data set [5], in data set [6], in data set [8] and in [9] was “Non-Toxic” in each case. The Activity result in [10], in [12], in data set [13] and in [14] was “Non-Toxic” throughout. Moreover, the IC50 in [7] is > 10 µM. Moreover, in data set [11], the hepatocyte CLint at 1 µM was 160 µL/min/1e6 cells.

`CCc1ccc(N(CC(C)C)S(=O)(=O)c2ccc(OCC3CCOCC3)cc2)cc1` had a logD in data set [1] of 7.2.

Take `CCc1ccc(N(CC(C)C)S(=O)(=O)c2ccc(OCC3CCOCC3)c(S(C)(=N)=O)c2)cc1` (stereo not drawn): the logD in [1] worked out at 4.6. For the compound `CCc1ccc(N(CC(C)C)S(=O)(=O)c2ccc(OCC3CCOCC3)c(S(=N)(=O)CC)c2)cc1` (stereo not drawn), the logD in data set [1] stood at 5. On to `CCc1ccc(N(CC(C)C)S(=O)(=O)c2ccc(OC3CCOCC3)c(S(C)(=N)=O)c2)cc1` (stereo not drawn), for which the pH-dependent lipophilicity (logD) in [1] worked out at 4.4.

The compound `CCc1ccc(N(CC(C)C)S(=O)(=O)c2ccc(N3CCN(C(C)=O)CC3)c(S(C)(=N)=O)c2)cc1` (stereo not drawn) registered a logD in data set [1] of 3.8. Still for that read-out and setting: for `CCc1ccc(N(CC(C)C)S(=O)(=O)c2ccc(OCC3CCOCC3)c(CC(=O)O)c2)cc1` the value was 3.1; for `CCc1ccc(N(CC(C)C)S(=O)(=O)c2ccc(OCC3CCOCC3)c(S(N)(=O)=O)c2)cc1`, 5.3; for `CCc1ccc(N(CC(C)C)S(=O)(=O)c2ccc(OCC3CCOCC3)c(CC#N)c2)cc1`, 6.5. `CCc1ccc(N(CC(C)C)S(=O)(=O)c2ccc(OCC3CCOCC3)c(S(C)(=O)=O)c2)cc1`: in data set [1], the logD amounted to 5.8. Still for that read-out and setting: for `CCc1ccc(N(CC(C)C)S(=O)(=O)c2ccc(CCN3CCOCC3)c(S(C)(=N)=O)c2)cc1` (stereo not drawn) the value was 4. Regarding `CCc1ccc(N(CC(C)C)S(=O)(=O)c2ccc(OCC3CCOCC3)c(CC(N)=O)c2)cc1`, the logD in data set [1] is 4.8. For `CCc1ccc(N(CC(C)C)S(=O)(=O)c2ccc(N[C@@H](C)C3CCOCC3)c(S(C)(=N)=O)c2)cc1` (stereo partly drawn), in [1], the logD turned out to be 5.6. On the same count and under the same terms, for `CCc1ccc(N(CC(C)C)S(=O)(=O)c2ccc(OCC3CCOCC3)c([S+](C)[O-])c2)cc1` (stereo not drawn) the value was 5.4. In data set [1], `CCc1ccc(N(CC(C)C)S(=O)(=O)c2ccc(NCC3(F)CCOCC3)c(S(C)(=N)=O)c2)cc1` (stereo not drawn) came in with a logD of 5.2.

As for `CCCCC(=O)O[C@]1(C(=O)CO)[C@@H](C)C[C@H]2[C@@H]3CCC4=CC(=O)C=C[C@]4(C)[C@@]3(F)[C@@H](O)C[C@@]21C` [BETAMETHASONE VALERATE], the Activity in [15] amounted to 72%.

For `CCc1ccc(N(CC(C)C)S(=O)(=O)c2ccc(OCC3CCOCC3)c(CO)c2)cc1` [GSK2981278], the logD in [1] is 5.9. On the same count and under the same terms, for `CCc1ccc(N(CC(C)C)S(=O)(=O)c2ccc(OC3CCN(C(C)=O)CC3)c(S(C)(=N)=O)c2)cc1` (stereo not drawn) the value was 3.8; for `CCc1ccc(N(CC(C)C)S(=O)(=O)c2ccc(OC3CCN(S(C)(=O)=O)CC3)c(S(C)(=N)=O)c2)cc1` (stereo not drawn), 4.6; for `CCc1ccc(N(CC(C)C)S(=O)(=O)c2ccc(NCC3(C)CCOCC3)c(S(C)(=N)=O)c2)cc1` (stereo not drawn), 5.7.
